The record followed here is a melting point compilation (Tetko et al.; mined from patent text by program, amines drawn as free bases though some values may be those of a salt).

As a reminder, the melting point is the temperature of the solid-liquid transition.

Turning to `CCc1cc(C(=O)c2ccccc2Cl)c(-n2c(C)nnc2CNC(=O)Cc2ccccc2)s1`, the melting point fell in the range of 153 to 155 °C. With `CS(=O)(=O)c1ccc(-c2[nH]c3ccc(Br)cc3c2-c2ccccc2)cc1`, the melting point was in the range of 262 to 264 °C.

`CCCc1nn(-c2ccc(C(F)(F)F)cn2)cc1COc1cccc(CC(=O)O)c1` displayed a melting point of 77 to 78 °C.

In turn, `CCCCOc1ccc(C(=O)O)c(OC)c1` had a melting point of 94 to 96 °C.

As for `Cc1cc(Nc2ccccc2C(=O)O)n(-c2ccccn2)n1`, the melting point was 190 to 193 °C. Then `CCOC(=O)c1ccccc1NCC(=O)N(C)c1ccccc1`, with 100 °C. For `CCCn1c(SC)nc2ccsc2c1=O`, the melting point is 142 to 144 °C. `CC(=O)N[C@@H](C)COc1ccc2nc(-c3cc(F)c(OCC4CC4)c(F)c3)oc2c1F` gave a melting point of 146 to 147 °C. The result for `C=CC(CSCCC(F)(F)C(F)(F)C(F)(F)C(F)(F)C(F)(F)C(F)(F)F)SSc1nc2ccccc2s1` (stereo not given) reads 47 to 48 °C; that for `CNC(=O)c1ccc(C(C)(C)CCNC(=O)NCc2ccc(N)nc2)nc1Nc1ccccc1`, 134 °C; that for `CCOC(=O)c1cc2c(C(=O)CN(Cc3ccccc3)C(C)CC(=O)OC)ccc(OCc3ccccc3)c2[nH]1` (stereo not given), 120 to 123 °C. `CNC(=O)C#CCc1ccc(OC)cc1` yielded a melting point of 123 to 124 °C. As for `CCOC(=O)C(Oc1ccccc1)c1ccccc1` (stereo not given), the melting point was 45 °C. Then `CCCC1=C(Cl)C(=O)c2oc(Cc3ccc(OC)c(Cl)c3)c(C)c2C1=O`, with 134 to 136 °C; and `Brc1cc2c(c(C34CC5CC(CC(C5)C3)C4)c1)OCO2`, with 136 °C; and `Cc1nn(-c2cc(Oc3ccc(O)cn3)c(Cl)cc2F)c(=O)n1C(F)F`, with 179 to 181 °C. The result for `CCCOc1cc(C)c(C=CC(C)=CC=CC(C)=CC(=O)OCC)c(C)c1C` reads 200 to 201 °C; that for `CCCCc1nc(Cl)c(C(=O)O)n1Cc1ccc(-c2ccccc2I)cc1`, 175 °C; that for `CC(=O)Oc1ccc2c(c1)CC=C1C2CCC2(C)C=CCC12` (stereo not given), 77 to 80 °C.

Turning to `CCc1cc(C(=O)O)c(O)cc1C`, the melting point was in the range of 152 to 154 °C. The compound `N#Cc1ccc(Cl)c(C=NO)c1` displayed a melting point of 191 to 193 °C. Then `O=Cc1cnc(-c2ccc(OC(F)(F)F)cc2)nc1`, with 114 to 115 °C; and `O=C(O)CCc1cn(Cc2ccc(F)cc2)c2ccc(C(=O)CC(=O)C(=O)O)cc2c1=O`, with 184 to 187 °C. The result for `COC(=O)C1Oc2ccc(Oc3ccc(Cl)cc3)cc2C(C)(c2ccccc2)O1` (stereo not given) reads 100 °C. Then `COc1cc2nc(N)nc(-c3ccc(C)c(Br)c3Br)c2cc1OC`, with 233 to 236 °C; and `CC(=NO)c1cccc(NC(=O)NC2N=C(c3ccccc3F)c3cccc(C)c3N(CC(=O)N3CC4CCC(CC4)C3)C2=O)c1` (stereo not given), with 199 to 208 °C; and `Cc1cc(C)c2c(c1O)C(NS(C)(=O)=O)CC2` (stereo not given), with 114 to 116 °C. For the compound `Cc1ccc(C=CC(=O)c2ccccc2)o1`, the melting point lay within 57 to 61 °C. Then `CNC(=O)Nc1nnc(C(F)F)s1`, with 198 to 200 °C; and `CC[C@H]1[C@@H](O)CC(=O)N1c1ccc(C#N)c(Cl)c1F`, with 142 to 144 °C; and `CCOC(=O)Nn1c(C)ccc1C(=O)c1ccccc1Cl`, with 82 to 84 °C. The result for `CN(CCCNC(=O)NCCCOc1cccc(CN2CCCCC2)c1)CCC(c1ccc(F)cc1)c1ccccn1` (stereo not given) reads 65 to 67 °C. Then `OCc1cc(I)cc(I)c1I`, with 156 to 159 °C. `CCOc1cnn(-c2cc(-c3ccnc(Nc4cccc(Cl)c4)n3)ccn2)c(=O)c1Cl` gave a melting point of 196 to 198 °C. The result for `C[C@]1(CN2CCN(C(=O)OCc3cc(Cl)cc(Cl)c3)CC2)Cn2cc([N+](=O)[O-])nc2O1` reads 129 to 130 °C. The result for `O=C(OCc1ccccc1)c1cc(I)ccc1OCc1ccccc1` reads 72 to 73 °C; that for `COC(=O)CCNCc1ccc(-c2cc3ncnc(Nc4ccc5[nH]ccc5c4)c3s2)cc1`, 105 to 118 °C. The result for `C=Cc1cn(C)c2cc(-c3ccccc3Cl)c3c(c12)C(=O)NC3=O` reads 200 to 205 °C; that for `O=C(O)C(CSc1nccs1)CS(=O)(=O)c1ccc(-c2ccc(Cl)cc2)cc1` (stereo not given), 152 to 154 °C; that for `COc1ccc(C(=O)Nc2ccc(CCc3ccc(O)c(O)c3)cc2)c(O)c1`, 179 to 180 °C. In turn, `CCOC(=O)Cc1sc(SCc2cc(O)nc(O)n2)nc1C` displayed a melting point of 203 to 204 °C.

`COc1cccc(-c2nc3c([nH]2)C(C)(C)CS(=O)(=O)CC3(C)C)c1` gave a melting point of 217 to 219 °C. The result for `CC(C)Nc1nc2ccccc2n2c(C(F)(F)F)nnc12` reads 185 to 187 °C. Then `CC(C)(Sc1ccncc1)C(=O)O`, with 190 to 192 °C. `CCOCCCOc1ccc(-c2ccc3c(c2)C=C(C(=O)OC)CCN3C(=O)OC(C)(C)C)cc1` registered a melting point of 125 to 128 °C. As to `CSc1nccc(-n2nnc3ccccc32)n1`, the melting point lay in the range of 180 to 182 °C.

`CCS(=O)(=O)Nc1c(C)c(C)cc2nc(OC)c(OC)nc12`: the melting point was in the range of 201 to 203 °C. Then `OCC(O)CN1CCN(C(c2ccccc2)c2ccccc2)CC1` (stereo not given), with 125 to 126 °C; and `COC1=CC2=CCC3C(CCC4(C)C(C5=NC(OCc6ccccc6)OC5)=CCC34)C2(C)CC1` (stereo not given), with 115 to 125 °C. Consider `COc1cc(N)cc(OC)c1-c1ccc(C[C@H](NC(=O)c2c(Cl)cccc2Cl)C(=O)O)cc1`, for which the melting point was in the range of 221 to 222 °C. Consider `Cc1cc(F)ccc1-c1nc(NC(C)(C)CO)nc2c1ccc(=O)n2-c1c(F)cccc1F`, for which the melting point is 99 to 105 °C. The result for `CCC1CC(=O)N(Cc2ccc(C(=O)NC3CCCC3)cc2)N=C1c1ccc(OC)c(OC)c1` (stereo not given) reads 154 °C. In turn, `Cc1ccc(C)c(OCc2ccccc2C(Cl)Cl)c1` showed a melting point of 62 to 65 °C. Then `O=C(O)c1cccc(S(=O)(=O)CCO)c1[N+](=O)[O-]`, with 178 to 181 °C.

For the compound `OC(c1ccc(C(F)(F)F)cc1)c1ccc(C(F)(F)F)cc1`, the melting point stood at 80 °C. `COc1ccc(CSCCNC(=O)c2c(Cl)cccc2Cl)cc1` displayed a melting point of 80 to 81 °C. Compound `Cc1nn(C)c(-c2ccc(F)cc2)c1C=O` yielded a melting point of 130 to 131 °C. Regarding `CC(C)(C)N1C(=O)C(=O)N(c2ccc(C#N)cc2)C1=S`, the melting point lay within 200 to 201 °C. `CCN(CC)CCOc1ccc(NC(=O)CC(=O)c2ccc(-c3ccccc3)cc2)cc1Cl` displayed a melting point of 148 to 151 °C. Compound `CC(C)(C)COC(=O)COc1ccc(C(=O)CN2CCN(c3ccncc3)CC2)cc1` showed a melting point of 88 to 90 °C. `COC(=O)c1nccnc1Nc1ccc(Cl)cc1`: the melting point was 135 to 136 °C. Then `Cn1nc(-c2ccc(Cl)cc2Cl)cc1O`, with 128 °C. The compound `COc1cc(C(=O)C(C)C)ccc1O` came in with a melting point of 86 to 87 °C. The compound `CCOC(=O)C(=CNc1cccc(C)n1)C(=O)OCC` had a melting point of 102 to 104 °C. For `Cc1cccc(NC(=O)NCC(=O)N(CC(=O)N2CCCC2)c2ccccc2)c1`, the melting point was determined as 206 °C.

As to `N#CN1c2ccccc2CC(=O)c2ccccc21`, the melting point is 153 to 154 °C. Then `CC(C)c1cccc(C(C)C)c1NC(=O)[C@H](Cc1ccc(OCc2ccccc2)cc1)NC(=O)OCC1c2ccccc2-c2ccccc21`, with 168 to 171 °C; and `CN(C)S(=O)(=O)c1cc([N+](=O)[O-])c(N)c([N+](=O)[O-])c1`, with 169 to 170 °C. For `Nc1sc(-c2cccc(F)c2)c(CN(C2CCCCC2)C2CCCCC2)c1C(=O)c1ccc(Cl)cc1`, the melting point lay within 205 to 207 °C. Regarding `O=C(O)c1ccccc1N1C(=O)C=CC1=O`, the melting point fell in the range of 165 to 168 °C. The result for `C/C(=C(\C#N)C(N)=S)N1CCCN(c2ccc(F)c(Cl)c2)CC1` reads 148 to 150 °C; that for `O=C1c2c(Br)cccc2S(=O)(=O)N1CSc1ccccc1`, 174 to 178 °C; that for `CN(CCC#N)c1nc(Nc2cccc(NS(C)(=O)=O)c2)nc2[nH]cnc12`, 218 to 222 °C. The result for `COc1cccc2c1nc(-c1c(F)cccc1F)n2Cc1c(F)cccc1F` reads 154 to 155 °C; that for `CCC(=O)Nc1ccc2nc(C(=O)NCc3cccc(OC)c3)[nH]c(=O)c2c1`, 222 to 223 °C; that for `CC(C)c1nc(N(C)S(C)(=O)=O)nc(-c2ccc(F)cc2)c1/C=C/C=O`, 86.5 °C. Then `CSC(NCc1ccc(N)cc1)=C(C#N)C#N`, with 100 to 102 °C; and `COC(=O)NN=C1CCCCCC1`, with 75 °C; and `O=C(CC(=O)c1ccccc1Cl)Nc1ccccc1`, with 142 °C. Compound `O=Cc1ccc(-c2ccc3ncnc(Nc4ccc(OCc5cccc(F)c5)c(Cl)c4)c3c2)s1` yielded a melting point of 252 °C.

`Cc1nn(C)c(C)c1Nc1ccc([N+](=O)[O-])cc1[N+](=O)[O-]`: the melting point was 153 °C. Then `O=P1(NCCBr)OCCCN1CCBr` (stereo not given), with 58 to 59 °C; and `CN(CC1CO1)S(=O)(=O)C(F)(F)C(F)(F)C(F)(F)C(F)(F)S(=O)(=O)N(C)CC1CO1` (stereo not given), with 77 to 79 °C; and `OC1CSC(Oc2ccc(-c3ccncc3)nc2F)C(O)C1O` (stereo not given), with 196 °C.

Turning to `CC(C)(C)OC(=O)Nc1cnc(F)cc1C(=O)CC#N`, the melting point is 106 to 115 °C. Then `CC(=O)OC1CSC(Oc2cnccc2-c2ccc(C(F)(F)F)cc2)C(OC(C)=O)C1OC(C)=O` (stereo not given), with 168 °C; and `CCC(=O)NCC[C@@H]1CCc2ccc(O)c(CCO)c21`, with 144 to 146 °C; and `O=S(=O)(c1ccccc1)n1c(-c2c(F)cccc2F)nc2ccccc21`, with 104 to 106 °C. The result for `CCOC(=O)C1=NN(c2cccc3ccccc23)C(C(=O)OCC)=NN1c1ccccc1` reads 124 to 125 °C; that for `Fc1cc(F)cc(NC(=S)c2ccccn2)c1`, 140 to 142 °C.
